Experimental findings from ChEMBL document CHEMBL4390655, “N,N-bis-heteroaryl methylamines: Potent anti-mitotic and highly cytotoxic agents” (Eur J Med Chem, 2019) are described below.

A short description of series [1]: Inhibition of sheep brain tubulin polymerization in presence of GTP by DAPI based fluorimetric method. More on the design: species or system Ovis aries.
Series [2] deals with HCT-116. The series can be described thus: Cytotoxicity against human HCT116 cells assessed as reduction in cell growth measured after 72 hrs by MTS assay. It counts as functional, cell-based. On the technique in general: Tetrazolium assays rely on reduction of a dye to a coloured formazan, in cell work by metabolically active cells.
The test system of a further series is A2780. Nature of the series: Cytotoxicity against human A2780 cells assessed as reduction in cell growth measured after 72 hrs by MTS assay. It counts as functional, cell-based. To be noted: A2780, 72 h.
A short description of series [3]: Cytotoxicity against human A2780R cells assessed as reduction in cell growth measured after 72 hrs by MTS assay. It counts as functional, cell-based.
The subject of the next series is MIA PaCa-2. The series can be described thus: Cytotoxicity against human MIAPaCa2 cells assessed as reduction in cell growth measured after 72 hrs by MTS assay. The note with it: MIA PaCa-2, 72 h. The class given is functional, cell-based.
The test system of a further series is K562. Nature of the series: Cytotoxicity against human K562 cells assessed as reduction in cell growth measured after 72 hrs by MTS assay. It counts as functional, cell-based. To be noted: K562, 72 h.
The next series concerns K-562R. The series can be described thus: Cytotoxicity against human K562R cells assessed as reduction in cell growth measured after 72 hrs by MTS assay. It counts as functional, cell-based.
For a further series, the system named is JIMT-1. The series can be described thus: Cytotoxicity against human JIMT1 cells assessed as reduction in cell growth measured after 72 hrs by MTS assay. The class given is functional, cell-based. To be noted: JIMT-1, 72 h.
The test system of series [4] is HCT-116. Nature of the series: Cell cycle arrest in human HCT116 cells assessed as accumulation at G2/M phase incubated for 24 hrs by propidium iodide staining based flow cytometry. It counts as functional. For orientation: In flow cytometry, cells or beads pass a laser one at a time.
For series [5], the system named is HCT-116. The series can be described thus: Induction of apoptosis in human HCT116 cells assessed as caspase-3/7 activation at 0.1 to 10 nM after 24 hrs by Apo-one caspase 3/7 assay. The class given is functional, cell-based.
Series [6] has as its system HUVEC. Nature of the series: Antivascular activity against HUVEC assessed as reduction in capillary like tube formation by measuring disruption of cell network integrity at 10 nM measured up to 5 hrs by matrigel method relative to control. It counts as functional, cell-based. The note with it: Homo sapiens.
A short description of series [7]: Antiproliferative activity against HUVEC assessed as growth inhibition after 72 hrs. The class given is cell-based. The note with it: human, HUVEC cells.
Series [8] concerns HCT-116. The series can be described thus: Cell cycle arrest in human HCT116 cells assessed as accumulation at G0/G1 phase at 5 nM incubated for 24 hrs by propidium iodide staining based flow cytometry (reference value: 37%). The class given is functional.
The subject of series [9] is HCT-116. Nature of the series: Cell cycle arrest in human HCT116 cells assessed as accumulation at G0/G1 phase at 10 nM incubated for 24 hrs by propidium iodide staining based flow cytometry (reference value: 37%). It counts as functional.
The subject of series [10] is HCT-116. Nature of the series: Cell cycle arrest in human HCT116 cells assessed as accumulation at G0/G1 phase at 1 nM incubated for 24 hrs by propidium iodide staining based flow cytometry (reference value: 37%). It counts as functional.
For series [11], the system named is HCT-116. Nature of the series: Cell cycle arrest in human HCT116 cells assessed as accumulation at S phase at 10 nM incubated for 24 hrs by propidium iodide staining based flow cytometry (reference value: 40%). The class given is functional.
The test system of series [12] is HCT-116. Nature of the series: Cell cycle arrest in human HCT116 cells assessed as accumulation at S phase at 5 nM incubated for 24 hrs by propidium iodide staining based flow cytometry (reference value: 40%). It counts as functional.
Series [13] deals with HCT-116. The series can be described thus: Cell cycle arrest in human HCT116 cells assessed as accumulation at S phase at 1 nM incubated for 24 hrs by propidium iodide staining based flow cytometry (reference value: 40%). The class given is functional.
Series [14] relates to HCT-116. The series can be described thus: Cell cycle arrest in human HCT116 cells assessed as accumulation at G2/M phase at 10 nM incubated for 24 hrs by propidium iodide staining based flow cytometry (reference value: 23%). It counts as functional.
The test system of series [15] is HCT-116. The series can be described thus: Cell cycle arrest in human HCT116 cells assessed as accumulation at G2/M phase at 5 nM incubated for 24 hrs by propidium iodide staining based flow cytometry (reference value: 23%). It counts as functional.
Series [16] concerns HCT-116. Nature of the series: Cell cycle arrest in human HCT116 cells assessed as accumulation at G2/M phase at 1 nM incubated for 24 hrs by propidium iodide staining based flow cytometry (reference value: 23%). It counts as functional.
Series [17] deals with HUVEC. Nature of the series: Antiproliferative activity against human HUVEC assessed as growth inhibition up to 5 hrs. The class given is cell-based.
The mark [18] stands for this setting: Homo sapiens, HCT-116, 72 h, read-out: IC50.

Each structure is given as a SMILES string. The source made the active and inactive calls. The rule behind the calls is not given here.

Regarding `C=C(c1cc(N(C)c2cc(C)nc3ccccc23)ccc1OC)c1cc(C)nc2ccccc12`, the values for the IC50 result (in [1]; in the series with HCT-116 [2] (setting [18])) were “Not Active” and 969 nM, respectively.

For the compound `Cc1nc(N(C)c2ccc3c(c2)c2ccccc2n3C)c2ccccc2n1`, the IC50 – broadly, the point on the concentration scale where inhibition reaches its midpoint – in [1] (read-out: IC50) amounted to 3800 nM; with HCT-116 [2] (setting [18]) it was 2.4 nM.

With `CN(c1ccc2c(c1)c1ccccc1n2C)c1cc(C#N)nc2ccccc12`, the IC50 in series [1] (read-out: IC50) came out at 1400 nM; in the series with HCT-116 [2] (setting [18]), 12 nM.

Regarding `CN(c1ccc2c(c1)c1ccccc1n2C)c1nc(Cl)nc2ccccc12`, the IC50 came out at 3140 nM in series [1] (read-out: IC50) and 1.06 nM in the series on HCT-116 [2] (setting [18]).

With `Cc1cc(N(C)c2ccc3c(c2)c2ccccc2n3Cc2ccccc2)c2ccccc2n1`, the 50% inhibitory concentration (IC50) entry (in series [1]; in the series with HCT-116 [2] (hct-116)) was “Not Active” in each case.

As for `Cc1cc(N(C)c2ccc3c(c2)c2cc(C(C)O)ccc2n3C)c2ccccc2n1` (stereo not given), the IC50 entry in series [1] was “Not Active”; in the series with HCT-116 [2] (setting [18]), 219 nM.

Take `Cc1cc(N(C)c2ccc3c(c2)c2ccccc2n3C)c2cc([N+](=O)[O-])ccc2n1`: the IC50 entry in series [1] is “Not Active”; in the series on HCT-116 [2] (setting [18]) it was 623 nM.

With `Cc1cc(N(C)c2ccc3[nH]c4ccccc4c3c2)c2ccccc2n1`, the IC50 result (in [1]; in the series with HCT-116 [2] (hct-116)) was “Not Active” each time.

In the case of `Cc1cc(N(C)c2ccc3c(c2)c2ccccc2n3C)c2cccc(O)c2n1`, the half-maximal inhibitory concentration (IC50) in series [1] (read-out: IC50) was 1240 nM; in the series on HCT-116 [2] (setting [18]) it was 50.6 nM.

As to `CN(c1ccc2c(c1)c1ccccc1n2C)c1ccnc2ccccc12`, the IC50 result in [1] was “Not Active”; in the series on HCT-116 [2] (setting [18]) it was 943 nM.

With `Cc1cc(N(C)c2ccc3c(c2)c2ccccc2n3C)c2ccccc2n1`, the IC50 in the series on A2780 is 0.53 nM; in [1] (read-out: IC50), 1130 nM; in the series on HCT-116 [2] (setting [18]) it was 0.07 nM; in [3], 0.54 nM; in the series on MIA PaCa-2, 0.47 nM; in the series on K562, 0.6 nM. The IC50 with K-562R was found to be 0.28 nM; with JIMT-1, 0.36 nM. The Activity result in the series on HCT-116 [4] is “Dose-dependent effect”; in the series on HCT-116 [5], “Dose-dependent effect”; with HCT-116 [8] it was 8%; with HCT-116 [9], 0%; with HCT-116 [10], 35%; in the series on HCT-116 [11], 18%. For the same compound, the Activity in the series on HCT-116 [12] is 12%; in the series with HCT-116 [13], 40%; with HCT-116 [14] it was 82%; with HCT-116 [15], 80%; in the series with HCT-116 [16] it was 25%; in the series on HUVEC [17], “Non-Toxic”. Further, the result with HUVEC [6] was Active. For the same compound, the GI50 – broadly, the concentration giving 50% growth inhibition – at 72 h in series [7] turned out to be 3.23 nM.

As to `Cn1c2ccccc2c2cc([N+](C)(C)c3ccnc4ccccc34)ccc21.[I-]`, the IC50 entry was “Not Active” in series [1] and 891 nM with HCT-116 [2] (setting [18]).

On to `COc1ccc2c(ccn2-c2cc(C)nc3ccccc23)c1`, for which the IC50 result in series [1] is “Not Active”; in the series with HCT-116 [2] (setting [18]) it was 482 nM.

For `Cc1cc(N(C)c2ccc3oc4ccccc4c3c2)c2ccccc2n1`, the 50% inhibitory concentration (IC50) entry in series [1] is “Not Active”; with HCT-116 [2] (setting [18]), 844 nM.

Take `CN(c1ccc2c(c1)c1ccccc1n2C)c1cc(Cl)nc2ccccc12`: the IC50 in series [1] (read-out: IC50) amounted to 1160 nM; in the series with HCT-116 [2] (setting [18]), 16.7 nM.

For `C=C(c1ccc(OC)c(O)c1)c1cc(OC)c(OC)c(OC)c1`, the IC50 in the series on A2780 was 3.01 nM; in series [1] (read-out: IC50), 1000 nM; in the series with HCT-116 [2] (setting [18]) it was 1.8 nM; in series [3], 2.66 nM; in the series with MIA PaCa-2, 5 nM; in the series with JIMT-1 it was 3.08 nM.

As to `CN(c1ccc2c(c1)c1ccccc1n2C)c1cc(C(F)(F)F)nc2ccccc12`, the IC50 result was “Not Active” in [1] and 847 nM in the series with HCT-116 [2] (setting [18]).

With `Cc1cc(N(C)c2ccc3c(c2)c2ccccc2n3C)ccn1`, the values for the IC50 result (in [1]; in the series on HCT-116 [2] (setting [18])) were “Not Active” and 879 nM, respectively.

For `COc1ccc(N(C)c2cc(C)nc3ccccc23)nc1N`, the results for the IC50 (in [1] (read-out: IC50); in the series on HCT-116 [2] (setting [18])) were 900 nM and 1.73 nM, respectively.

Take `COc1cccc2c(N(C)c3ccc4c(c3)c3ccccc3n4C)cc(C)nc12`: the results for the IC50 (in series [1] (read-out: IC50); with HCT-116 [2] (setting [18])) were 1480 nM and 21.6 nM, respectively.

With `CN(c1ccc2c(ccn2C)c1)c1cc(C(F)(F)F)nc2ccccc12`, the 50% inhibitory concentration (IC50) in [1] (read-out: IC50) amounted to 2500 nM; in the series on HCT-116 [2] (setting [18]) it was 3.28 nM.

Consider `Cc1cc(N(C)c2ccc3c(c2)c2ccccc2n3C)c2cc(N)ccc2n1`, for which the IC50 in series [1] (read-out: IC50) was determined as 5760 nM; in the series with HCT-116 [2] (setting [18]), 24.5 nM.

For the compound `Cc1cc(N(C)c2ccc3c(c2)OCCO3)c2ccccc2n1`, the IC50 in [1] (read-out: IC50) was found to be 4080 nM; with HCT-116 [2] (setting [18]) it was 20.7 nM.

As for `Cc1cc(N(C)c2ccc3c(c2)c2cc([N+](=O)[O-])ccc2n3C)c2ccccc2n1`, the 50% inhibitory concentration (IC50) result (in series [1]; with HCT-116 [2] (hct-116)) was “Not Active” each time.

Consider `Cc1cc(N(C)c2ccc3c(c2)c2cc(N)ccc2n3C)c2ccccc2n1`, for which the concentration for half-maximal inhibition (IC50) in series [1] (read-out: IC50) was 2760 nM; in the series on HCT-116 [2] (setting [18]), 2.88 nM.

In the case of `COc1ccc(N(C)c2cc(C)nc3ccccc23)nc1Cl`, the half-maximal inhibitory concentration (IC50) entry in [1] is “Not Active”; with HCT-116 [2] (setting [18]), 462 nM.

Turning to `CN(c1ccc2c(ccn2C)c1)c1nc(Cl)nc2ccccc12`, the IC50 with A2780 was found to be 0.24 nM; in series [1] (read-out: IC50), 1190 nM; in the series on HCT-116 [2] (setting [18]), 0.2 nM; in series [3] it was 2.34 nM; in the series with MIA PaCa-2, 0.62 nM; with K562 it was 0.77 nM. Further, the IC50 came to 1.77 nM in the series with K-562R and 0.52 nM with JIMT-1.

In the case of `CCn1c2ccccc2c2cc(N(C)c3cc(C)nc4ccccc34)ccc21`, the IC50 result in series [1] is “Not Active”; in the series on HCT-116 [2] (setting [18]) it was 186 nM.

`COc1ccc(N(C)c2cc(C)nc3ccccc23)nc1O`: the results for the IC50 result (in series [1]; in the series on HCT-116 [2] (setting [18])) were “Not Active” and 205 nM, respectively.

As for `Cc1cc(N(C)c2ccc3c(ccn3C)c2)c2ccccc2n1`, the results for the IC50 (in series [1] (read-out: IC50); with HCT-116 [2] (setting [18])) were 1340 nM and 2 nM, respectively.
